From patent US9580390B2, “Indazole compounds as kinase inhibitors and method of treating cancer with same” (University Health Network, priority 2011, dated 2017)

Experiments:
[1] = biological target: T1, human TTK (Homo sapiens, UniProt P33981); assay: TTK inhibition assay (indirect ELISA); format: biochemical; conditions: read-out: TTK IC50 Range
T1 construct: amino terminal GST fusion of full length human TTK; purchased Invitrogen
T1 sequence (P33981 1-857): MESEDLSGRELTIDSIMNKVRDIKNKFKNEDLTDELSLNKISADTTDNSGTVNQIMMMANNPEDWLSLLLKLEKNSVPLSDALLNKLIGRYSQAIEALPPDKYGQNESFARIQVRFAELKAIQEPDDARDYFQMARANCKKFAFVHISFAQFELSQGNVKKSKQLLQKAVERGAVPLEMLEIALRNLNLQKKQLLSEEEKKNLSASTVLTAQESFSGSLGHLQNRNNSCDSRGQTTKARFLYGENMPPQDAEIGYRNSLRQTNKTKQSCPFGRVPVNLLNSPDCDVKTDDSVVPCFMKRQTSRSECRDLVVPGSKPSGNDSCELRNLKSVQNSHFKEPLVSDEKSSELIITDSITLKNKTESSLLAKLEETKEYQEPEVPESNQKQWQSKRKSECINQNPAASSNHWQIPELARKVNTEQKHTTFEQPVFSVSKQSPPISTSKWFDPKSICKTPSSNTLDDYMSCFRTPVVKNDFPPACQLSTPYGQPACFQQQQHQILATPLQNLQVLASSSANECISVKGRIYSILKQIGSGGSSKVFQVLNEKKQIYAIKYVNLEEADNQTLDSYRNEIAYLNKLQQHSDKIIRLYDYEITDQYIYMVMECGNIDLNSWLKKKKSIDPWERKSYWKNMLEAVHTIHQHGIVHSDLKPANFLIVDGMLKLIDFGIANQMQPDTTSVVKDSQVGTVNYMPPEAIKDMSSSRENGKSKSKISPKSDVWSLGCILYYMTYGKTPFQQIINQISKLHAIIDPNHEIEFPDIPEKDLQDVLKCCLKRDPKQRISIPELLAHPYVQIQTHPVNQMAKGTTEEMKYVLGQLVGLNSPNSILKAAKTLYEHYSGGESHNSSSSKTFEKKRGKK

[2] = tested on: Breast cancer cells; assay: Cancer cell line growth inhibition (SRB assay); format: cell-based; conditions: Homo sapiens; MDA-MB-468; read-out: Cancer Cell Line GI50 Range MDA-MB-468
[3] = tested on: ovarian cancer cells (PA-1); assay: Cancer cell line growth inhibition (SRB assay); format: cell-based; conditions: Homo sapiens, PA-1; read-out: Cancer Cell Line GI50 Range PA-1
[4] = tested on: colon cancer cells (HCT116); assay: Cancer cell line growth inhibition (SRB assay); format: cell-based; conditions: Homo sapiens, HCT-116; read-out: Cancer Cell Line GI50 Range HCT116

| SMILES | IC50 [1] [µM] | GI50 [2] [µM] | GI50 [3] [µM] | GI50 [4] [µM] |
| --- | --- | --- | --- | --- |
| CC(C)C(NC(=O)c1ccc2[nH]nc(-c3ccc(OC4CN(C)C4)cc3)c2c1)c1ccccc1Cl (centres unmarked) [Example A289, N-(1-(2-chlorophenyl)-2-methylpropyl)-3-(4-((1-methylazetidin-3-yl)oxy)phenyl)-1H-indazole-5-carboxamide] | < 0.1 | > 0.5 | 0.1 to 0.5 | 0.1 to 0.5 |
| CCC(CC)C(NC(=O)c1ccc2[nH]nc(-c3ccc(OC4CCN(C5COC5)CC4)cc3)c2c1)c1ccccn1 (centres unmarked) [Example A292, N-(2-ethyl-1-(pyridin-2-yl)butyl)-3-(4-((1-(oxetan-3-yl)piperidin-4-yl)oxy)phenyl)-1H-indazole-5-carboxamide] | < 0.1 | < 0.1 | < 0.1 | < 0.1 |
| CN1CC(Oc2ccc(-c3n[nH]c4ccc(C(=O)N[C@H](c5ccccn5)C5CCCC5)cc34)cc2)C1 [Example A295, (S)-N-(cyclopentyl(pyridin-2-yl)methyl)-3-(4-((1-methylazetidin-3-yl)oxy)phenyl)-1H-indazole-5-carboxamide] | < 0.1 | 0.1 to 0.5 | < 0.1 | < 0.1 |
| CC(C)C[C@H](NC(=O)c1ccc2[nH]nc(-c3ccc(N4C5CCCC4CC(O)C5)cc3)c2c1)c1ccccn1 (stereo partly drawn) [Example A304, 3-(4-((1R,3S,5S)-3-hydroxy-9-azabicyclo[3.3.1]nonan-9-yl)phenyl)-N-((S)-3-methyl-1-(pyridin-2-yl)butyl)-1H-indazole-5-carboxamide] | < 0.1 | 0.1 to 0.5 | 0.1 to 0.5 | 0.1 to 0.5 |
| O=C(N[C@@H](c1ncccn1)C1CCCC1)c1ccc2[nH]nc(-c3ccc(N4CC(C5COC5)C4)cc3)c2c1 [Example A312, (R)-N-(cyclopentyl(pyrimidin-2-yl)methyl)-3-(4-(3-(oxetan-3-yl)azetidin-1-yl)phenyl)-1H-indazole-5-carboxamide] | < 0.1 | < 0.1 | < 0.1 | < 0.1 |
| O=C(N[C@@H](c1ccccn1)C1CC1)c1ccc2[nH]nc(-c3ccc(N4CC(N5CCOCC5)C4)cc3)c2c1 [Example A316, (R)-N-(cyclopropyl(pyridin-2-yl)methyl)-3-(4-(3-morpholinoazetidin-1-yl)phenyl)-1H-indazole-5-carboxamide] | < 0.1 | 0.1 to 0.5 | 0.1 to 0.5 | 0.1 to 0.5 |
| CC(C)[C@@H](NC(=O)c1ccc2[nH]nc(-c3ccc(N4CC(N5CCOCC5)C4)cc3)c2c1)c1ccccc1Cl [Example A317, (R)-N-(1-(2-chlorophenyl)-2-methylpropyl)-3-(4-(3-morpholinoazetidin-1-yl)phenyl)-1H-indazole-5-carboxamide] | < 0.1 | 0.1 to 0.5 | < 0.1 | 0.1 to 0.5 |
| CC(C)C(NC(=O)c1ccc2[nH]nc(-c3ccc(O[C@H]4C[C@H]5CC[C@@H](C4)N5C4COC4)cc3)c2c1)c1ccccc1Cl (stereo partly drawn) [Example A324, N-(1-(2-chlorophenyl)-2-methylpropyl)-3-(4-(((1R,3R,5S)-8-(oxetan-3-yl)-8-azabicyclo[3.2.1]octan-3-yl)oxy)phenyl)-1H-indazole-5-carboxamide] | < 0.1 | 0.1 to 0.5 | 0.1 to 0.5 | 0.1 to 0.5 |
| CC(C)CC(NC(=O)c1ccc2[nH]nc(-c3ccc(O[C@H]4C[C@H]5CC[C@@H](C4)N5C4COC4)cc3)c2c1)c1ccccc1 (stereo partly drawn) [Example A338, N-(3-methyl-1-phenylbutyl)-3-(4-(((1R,3R,5S)-8-(oxetan-3-yl)-8-azabicyclo[3.2.1]octan-3-yl)oxy)phenyl)-1H-indazole-5-carboxamide] | < 0.1 | 0.1 to 0.5 | 0.1 to 0.5 | 0.1 to 0.5 |
| CC(C)CC(NC(=O)c1ccc2[nH]nc(-c3ccc(O[C@H]4C[C@H]5CC[C@@H](C4)N5C=O)cc3)c2c1)c1ccccc1 (stereo partly drawn) [Example A340, 3-(4-(((1R,3R,5S)-8-formyl-8-azabicyclo[3.2.1]octan-3-yl)oxy)phenyl)-N-(3-methyl-1-phenylbutyl)-1H-indazole-5-carboxamide] | < 0.1 | 0.1 to 0.5 | < 0.1 | 0.1 to 0.5 |
| CCC(CC)C(NC(=O)c1ccc2[nH]nc(-c3ccc(O[C@H]4C[C@H]5CC[C@@H](C4)N5C4COC4)cc3)c2c1)c1ccccn1 (stereo partly drawn) [Example A341, N-(2-ethyl-1-(pyridin-2-yl)butyl)-3-(4-(((1R,3R,5S)-8-(oxetan-3-yl)-8-azabicyclo[3.2.1]octan-3-yl)oxy)phenyl)-1H-indazole-5-carboxamide] | < 0.1 | 0.1 to 0.5 | 0.1 to 0.5 | 0.1 to 0.5 |
| CCC[C@H](NC(=O)c1ccc2[nH]nc(-c3ccc(OC4CC5CCC(C4)N5C4COC4)cc3)c2c1)c1ccccc1 (stereo partly drawn) [Example A344, 3-(4-(((1R,3R,5S)-8-(oxetan-3-yl)-8-azabicyclo[3.2.1]octan-3-yl)oxy)phenyl)-N-((S)-1-phenylbutyl)-1H-indazole-5-carboxamide] | < 0.1 | > 0.5 | 0.1 to 0.5 | > 0.5 |
| O=C(NC(c1ccccc1)C1CCC1)c1ccc2[nH]nc(-c3ccc(O[C@H]4C[C@H]5CC[C@@H](C4)N5C4COC4)cc3)c2c1 (stereo partly drawn) [Example A345, N-(cyclobutyl(phenyl)methyl)-3-(4-(((1R,3R,5S)-8-(oxetan-3-yl)-8-azabicyclo[3.2.1]octan-3-yl)oxy)phenyl)-1H-indazole-5-carboxamide] | < 0.1 | 0.1 to 0.5 | 0.1 to 0.5 | 0.1 to 0.5 |
| O=CN1[C@@H]2CC[C@H]1C[C@@H](Oc1ccc(-c3n[nH]c4ccc(C(=O)NC(c5ccccc5)C5CCC5)cc34)cc1)C2 (stereo partly drawn) [Example A346, N-(cyclobutyl(phenyl)methyl)-3-(4-(((1R,3R,5S)-8-formyl-8-azabicyclo[3.2.1]octan-3-yl)oxy)phenyl)-1H-indazole-5-carboxamide] | < 0.1 | 0.1 to 0.5 | 0.1 to 0.5 | 0.1 to 0.5 |
| O=C(N[C@H](c1ccccn1)C1CCCC1)c1ccc2[nH]nc(-c3ccc(OC4CC5CCC(C4)N5C4COC4)cc3)c2c1 (stereo partly drawn) [Example A347, N-((S)-cyclopentyl(pyridin-2-yl)methyl)-3-(4-(((1R,3R,5S)-8-(oxetan-3-yl)-8-azabicyclo[3.2.1]octan-3-yl)oxy)phenyl)-1H-indazole-5-carboxamide] | < 0.1 | 0.1 to 0.5 | 0.1 to 0.5 | < 0.1 |
| O=CN1C2CCC1CC(Oc1ccc(-c3n[nH]c4ccc(C(=O)N[C@H](c5ccccn5)C5CCCC5)cc34)cc1)C2 (stereo partly drawn) [Example A348, N-((S)-cyclopentyl(pyridin-2-yl)methyl)-3-(4-(((1R,3R,5S)-8-formyl-8-azabicyclo[3.2.1]octan-3-yl)oxy)phenyl)-1H-indazole-5-carboxamide] | < 0.1 | < 0.1 | < 0.1 | < 0.1 |
| CC(C)[C@H](NC(=O)c1ccc2[nH]nc(-c3ccc(OC4CC5CCC(C4)N5C=O)nc3)c2c1)c1ccccc1Cl (stereo partly drawn) [Example A354, N-((S)-1-(2-chlorophenyl)-2-methylpropyl)-3-(6-(((1R,3R,5S)-8-formyl-8-azabicyclo[3.2.1]octan-3-yl)oxy)pyridin-3-yl)-1H-indazole-5-carboxamide] | < 0.1 | 0.1 to 0.5 | 0.1 to 0.5 | 0.1 to 0.5 |
